Assay results: ChEMBL document CHEMBL5365514, “Redefining Cancer Therapy: Toward BCL-XL/BCL-2 Dual Inhibitors with Diminished Platelet Toxicity” (ACS Med Chem Lett, 2023)

Key:
RS4-11 = test: Antiproliferative activity against human RS4-11 cells assessed as inhibition of cell growth measured after 48 hrs by MTS assay; type: functional, cell-based; conditions: RS4-11, 48 h
MOLT-4 = test: Antiproliferative activity against human MOLT-4 cells assessed as inhibition of cell growth measured after 48 hrs by MTS assay; type: functional, cell-based; conditions: MOLT-4, 48 h

IC50 (RS4-11) [nM]	IC50 (MOLT-4) [nM]	Compound
< 20	< 20	Cc1ncsc1-c1ccc([C@H](C)NC(=O)[C@@H]2C[C@@H](O)CN2C(=O)[C@@H](NC(=O)CCCCC(=O)N2CCN(C3CCN(C[C@]4(C)CCC(c5ccc(Cl)cc5)=C(CN5CCN(c6ccc(C(=O)NS(=O)(=O)c7ccc(N[C@H](CCN8CCCOCC8)CSc8ccccc8)c(S(=O)(=O)C(F)(F)F)c7)cc6)CC5)C4)CC3)CC2)C(C)(C)C)cc1
< 20	< 20	Cc1ncsc1-c1ccc([C@H](C)NC(=O)[C@@H]2C[C@@H](O)CN2C(=O)[C@@H](NC(=O)CN(C)CC(=O)N2CCC(C3CCN(C[C@]4(C)CCC(c5ccc(Cl)cc5)=C(CN5CCN(c6ccc(C(=O)NS(=O)(=O)c7ccc(N[C@H](CCN8CCCOCC8)CSc8ccccc8)c(S(=O)(=O)C(F)(F)F)c7)cc6)CC5)C4)CC3)CC2)C(C)(C)C)cc1
< 20	< 20	Cc1ncsc1-c1ccc([C@H](C)NC(=O)[C@@H]2C[C@@H](O)CN2C(=O)[C@@H](NC(=O)CN(C)CCC(=O)N2CCC(C3CCN(C[C@]4(C)CCC(c5ccc(Cl)cc5)=C(CN5CCN(c6ccc(C(=O)NS(=O)(=O)c7ccc(N[C@H](CCN8CCCOCC8)CSc8ccccc8)c(S(=O)(=O)C(F)(F)F)c7)cc6)CC5)C4)CC3)CC2)C(C)(C)C)cc1
